From ChEMBL document CHEMBL5331108, “Design and Synthesis of 4-Fluorophenyl-5-methylene-2(5H)-furanone Derivatives as Potent Quorum Sensing Inhibitors” (J Med Chem, 2023)
≈ marks a conversion by molar mass, not a printed value. Calls of active or inactive are those of the source. The rule behind the calls is not given here.

Assays:
[1] = tested on: Escherichia coli; test: Antibacterial activity against penicillin-susceptible Escherichia coli ATCC25922 assessed as inhibition of bacterial growth incubated for 20 hrs by CLSI protocol based microdilution method; format: functional
[2] = tested on: Pseudomonas aeruginosa; test: Antibacterial activity against penicillin-susceptible Pseudomonas aeruginosa ATCC27853 assessed as inhibition of bacterial growth incubated for 20 hrs by CLSI protocol based microdilution method; format: functional
[3] = tested on: Bacillus pumilus; test: Antibacterial activity against penicillin-susceptible Bacillus pumilus CMCC63202 assessed as inhibition of bacterial growth incubated for 20 hrs by CLSI protocol based microdilution method; format: functional
[4] = Inhibition of quorum sensing system in Pseudomonas aeruginosa PAO1 assessed as inhibition of rhamnolipid production at 102.4 ug/ml incubated for 24 hrs by absorbance based assay; settings: dose 102.4 µg/ml
[5] = tested on: Staphylococcus aureus; test: Antibacterial activity against erthromycin-susceptible Staphylococcus aureus ATCC25923 assessed as inhibition of bacterial growth incubated for 20 hrs by CLSI protocol based microdilution method; format: functional
[6] = tested on: Bacillus subtilis; test: Antibacterial activity against penicillin-susceptible Bacillus subtilis ATCC9372 assessed as inhibition of bacterial growth incubated for 20 hrs by CLSI protocol based microdilution method; format: functional
[7] = tested on: Pseudomonas aeruginosa; test: Antibacterial activity against wild type Pseudomonas aeruginosa […] CGMCC1.12483 assessed as inhibition of bacterial growth incubated for 20 hrs by CLSI protocol based microdilution method; format: functional
[8] = Inhibition of quorum sensing system in Pseudomonas aeruginosa PAO1 assessed as inhibition of protease activity at 102.4 ug/ml incubated for 24 hrs by absorbance based assay; settings: dose 102.4 µg/ml
[9] = tested on: Pseudomonas aeruginosa; test: Inhibition of biofilm formation in Pseudomonas aeruginosa PAO1 at 32 ug/ml incubated for 20 hrs by crystal violet staining based analysis; format: functional; settings: dose 32.0 µg/ml
[10] = tested on: Pseudomonas aeruginosa; test: Antibacterial activity against Pseudomonas aeruginosa 27853 assessed as inhibition of bacterial growth at 256 ug/ml measured after 25 hrs by absorbance based assay; format: functional, organism-based; settings: dose 256.0 µg/ml
[11] = Inhibition of quorum sensing system in Pseudomonas aeruginosa PAO1 assessed as inhibition of pyocyanin production at 102.4 ug/ml incubated for 18 hrs by absorbance based assay; settings: dose 102.4 µg/ml
[12] = tested on: Staphylococcus aureus; test: Antibacterial activity against methicillin-resistant Staphylococcus aureus ATCC43300 assessed as inhibition of bacterial growth incubated for 20 hrs by CLSI protocol based microdilution method; format: functional
[13] = tested on: Pseudomonas aeruginosa; test: Antibacterial activity against Pseudomonas aeruginosa PAO1 assessed as inhibition of bacterial growth at 256 ug/ml measured after 25 hrs by absorbance based assay; format: functional, organism-based; settings: dose 256.0 µg/ml
[14] = tested on: Pseudomonas aeruginosa; test: Synergistic antibacterial activity against Pseudomonas aeruginosa 27853 assessed as inhibition of bacterial growth incubated for 24 hrs in the presence of Clarithromycin by absorbance based microplate reader analysis; format: functional, organism-based; settings: dose 1-256 µg/ml
[15] = tested on: Pseudomonas aeruginosa; test: Synergistic antibacterial activity against Pseudomonas aeruginosa 27853 assessed as inhibition of bacterial growth at 1 to 256 ug/ml incubated for 24 hrs in the presence of Ciprofloxacin by absorbance based microplate reader analysis; format: functional, organism-based; settings: dose 1-256 µg/ml
[16] = tested on: Pseudomonas aeruginosa; test: Synergistic antibacterial activity against Pseudomonas aeruginosa PAO1 assessed as inhibition of bacterial growth at 1 to 256 ug/ml incubated for 24 hrs in the presence of Clarithromycin by absorbance based microplate reader analysis; format: functional, organism-based; settings: dose 1-256 µg/ml
[17] = Hemolytic activity in mouse red blood cells assessed as hemolysis rate at 512 ug/ml incubated for 1 hrs by microplate reader analysis relative to control; format: toxicity, cell-based, Erythrocyte; settings: red blood cells (erythrocytes), at 512 µg/mL, read-out: Activity
[18] = tested on: Pseudomonas aeruginosa; test: Synergistic antibacterial activity against Pseudomonas aeruginosa PAO1 assessed as inhibition of bacterial growth at 1 to 256 ug/ml incubated for 24 hrs in the presence of ciprofloxacin by absorbance based microplate reader analysis; format: functional, organism-based; settings: dose 1-256 µg/ml

Structure (SMILES)	MIC [1] [µg/mL]	MIC [2] [µg/mL]	MIC [3] [µg/mL]	inhibition [4]	MIC [5] [µg/mL]	MIC [6] [µg/mL]	MIC [7] [µg/mL]	inhibition [8]	inhibition [9]	Activity [10]	inhibition [11]	MIC [12] [µg/mL]	Activity [13]	Activity [14]	Activity [15]	Activity [16]	hemolysis at 1 h, 512 ug/ml [17] [%]	Activity [18]
C=C1OC(=O)C(CNC(=O)c2ccc(C)cc2)=C1c1ccc(OC)cc1	> 512	> 512	> 512	Active	> 512	> 512	> 512	Active	inactive	inactive	Active	> 512	inactive	–	–	–	–	–
C=C1OC(=O)C(CNC(=O)c2ccc(C)cc2)=C1c1cccc(Cl)c1	> 512	> 512	> 512	Active	> 512	> 512	> 512	Active	inactive	inactive	Active	> 512	inactive	–	–	–	–	–
C=C1OC(=O)C(CNC(=O)CCc2ccccc2)=C1c1ccc(F)cc1	> 512	> 512	> 512	–	> 512	64 (≈ 182 µM)	512 (≈ 1460 µM)	–	–	–	inactive	16 (≈ 45.5 µM)	–	–	–	–	–	–
C=C1OC(=O)C(CNC(=O)c2ccc(Cl)cc2)=C1c1ccc(F)cc1	> 512	> 512	> 512	47.3%	> 512	> 512	> 512	8.6%	Active	inactive	Active	> 512	inactive	Dose-Dependent Effect	Active	Active	> 2.5	Active
C=C1OC(=O)C(CNC(=O)CCCCCCCCCC)=C1c1ccc(F)cc1	> 512	> 512	> 512	Active	> 512	> 512	> 512	Active	inactive	inactive	44.7%	> 512	inactive	–	–	–	–	–
C=C1OC(=O)C(CNC(=O)CCCCCCCCCCC)=C1c1ccc(F)cc1	> 512	> 512	> 512	Active	> 512	> 512	> 512	Active	Active	inactive	36.5%	> 512	inactive	–	–	–	–	–
C=C1OC(=O)C(CNC(=O)Cc2ccccc2)=C1c1ccc(F)cc1	> 512	> 512	> 512	–	> 512	> 512	> 512	–	–	–	inactive	> 512	–	–	–	–	–	–
O=C1C=C(Br)/C(=C/Br)O1	256 (≈ 1010 µM)	256 (≈ 1010 µM)	256 (≈ 1010 µM)	44.9%	32 (≈ 126 µM)	64 (≈ 252 µM)	128 (≈ 504 µM)	–	Active	Active	–	128 (≈ 504 µM)	Active	–	–	–	–	–
C=C1OC(=O)C(CNC(=O)c2ccc(C)cc2)=C1c1ccccc1Cl	> 512	> 512	> 512	–	> 512	> 512	> 512	–	–	–	–	> 512	–	–	–	–	–	–
C=C1OC(=O)C(CNC(=O)CC)=C1c1ccc(F)cc1	> 512	> 512	256 (≈ 930 µM)	–	128 (≈ 465 µM)	512 (≈ 1860 µM)	512 (≈ 1860 µM)	–	–	–	–	256 (≈ 930 µM)	–	–	–	–	–	–
C=C1OC(=O)C(CNC(=O)c2ccccc2OC)=C1c1ccc(F)cc1	> 512	> 512	> 512	–	> 512	> 512	> 512	–	–	–	–	> 512	–	–	–	–	–	–
C=C1OC(=O)C(CNC(=O)c2ccccc2Br)=C1c1ccc(F)cc1	> 512	> 512	> 512	–	> 512	16 (≈ 39.8 µM)	> 512	–	–	–	–	8 (≈ 19.9 µM)	–	–	–	–	–	–
C=C1OC(=O)C(CNC(=O)c2cccc(OC)c2)=C1c1ccc(F)cc1	> 512	> 512	> 512	Active	> 512	> 512	> 512	8.6%	Active	inactive	Active	32 (≈ 90.6 µM)	inactive	Dose-Dependent Effect	Active	Active	–	Active
C=C1OC(=O)C(CNC(=O)c2ccc(C)cc2)=C1c1ccc(Cl)cc1	> 512	> 512	> 512	–	> 512	> 512	> 512	–	–	–	–	> 512	–	–	–	–	–	–
C=C1C(c2ccc(F)cc2)=C(CNC(=O)c2ccc(C)cc2)C(=O)N1c1ccccc1Cl	> 512	> 512	512 (≈ 1150 µM)	–	> 512	> 512	512 (≈ 1150 µM)	–	–	–	–	> 512	–	–	–	–	–	–
C=C1OC(=O)C(CNC(=O)CCCCCCCC)=C1c1ccc(F)cc1	> 512	> 512	> 512	–	> 512	> 512	> 512	–	–	–	–	> 512	–	–	–	–	–	–
C=C1OC(=O)C(CNC(=O)CCCC)=C1c1ccc(F)cc1	> 512	> 512	16 (≈ 52.7 µM)	–	4 (≈ 13.2 µM)	32 (≈ 105 µM)	> 512	–	–	–	–	32 (≈ 105 µM)	–	–	–	–	–	–
